# Data from patent publication US20250154124A1, “PROCESSES FOR THE PREPARATION OF N-(1-METHYLCYCLOPROPYL)-2-(3-PYRIDINYL)-2H-INDAZOLE-4-CARBOXAMIDE AND INTERMEDIATES THEREOF” (FMC CORPORATION, priority 2022, published 2025).
# Assays:
# [1] = Stable polymorph form screen (slurry experiments); assay type: physicochemical; settings: between 2° C. and 73° C.
# Method: Slurry experiments were conducted to identify the stable form at various conditions. In these experiments, saturated solutions in various solvents containing excess undissolved solids (starting with Form A+minor Form B) were stirred for extended durations. Slurries at room temperature (RT) and 2-8° C. were typically conducted for approximately 2 weeks, while slurries at 72-73° C. were stirred for a shorter duration (1 day) to minimize the potential for decomposition. […] The results are shown in the table 12 where the time and temperatures are approximate.
# [2] = Form A and Form B interconversion (competitive) slurries; assay type: physicochemical; settings: between 2° C. and 72° C.
# Method: Relative thermodynamic stabilities of anhydrous/non-solvated Forms A and B were studied at 2-8° C., room temperature (RT) and at 71-72° C. via interconversion (competitive) slurries. In these slurries, a given solvent system was pre-saturated with compound 092 (Form A+minor Form B) at the stated temperature, and a portion of the liquid phase was filtered into a mixture of solids containing relatively equal amounts of Form A and Form B. Interconversion slurries at 2-8° C. and RT were allowed to stir for 22 days, while slurries at 71-72° C. stirred for shorter duration (2-4 days). […] The results are reported in table 13 below where: liquid phase for each slurry was pre-saturated using as-received Form A+minor Form B; solvent ratios are v/v; water activity values were calculated using UNIFAC calculator at RT; and times and temperatures are approximate.
smiles,measurement,setting,value
"CC1(NC(=O)c2cccc3nn(-c4cccnc4)cc23)CC1 [Form A, N-(1-methylcyclopropyl)-2-(3-pyridinyl)-2H-indazole 4-carboxamide]",relative stability of polymorph forms (slurry screen),[1],more stable than Form B
same,relative thermodynamic stability of Forms A and B (competitive slurries),[2],thermodynamically stable form
